From PubChem BioAssay AID330 (DTP/NCI, 2004)
“And” between values parts separate entries of the source, which are not always exact repeats. Equal entries are not always repeated. Inconclusive results and toxic doses are left out. Rule for the calls: active = survival T/C of 150% or more; inactive = T/C below 125% in these data.

Tested on: P388 leukemia ip, CD2F1 mice, survival T/C
Assay: NCI In Vivo Anticancer Drug Screen. Data for tumor model P388 Leukemia (intraperitoneal) in CD2F1 (CDF1) mice
Conditions: endpoint: median survival time, higher = longer survival
In short: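 Mice carrying the transplanted tumor received test compound or vehicle. Survival was recorded in each group, and the value is the treated-group measurement divided by that of the vehicle-treated control group.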

[1] = dose: 100.0 mg/kg/injection, schedule: Q01DX009 (ip), vehicle: saline with Tween-80
[2] = dose: 50.0 mg/kg/injection, schedule: Q01DX005 (ip), vehicle: saline with Tween-80
[3] = dose: 3.12 mg/kg/injection, schedule: Q01DX005 (ip), vehicle: Klucel (hydroxypropylcellulose) (HPC)

Measured: T/C

O=C(CCCl)N/N=C/c1ccccc1
inactive: dose: 2.5 mg/kg/injection, schedule: Q01DX009 (ip), vehicle: saline 104 % of control | dose: 5.0 mg/kg/injection, schedule: Q01DX009 (ip), vehicle: saline 98 % of control and 101 % of control | dose: 10.0 mg/kg/injection, schedule: Q01DX009 (ip), vehicle: saline 114 % of control and 115 % of control

CCCn1c(=S)[nH]c2ccccc2c1=O
inactive: [1] 95 % of control | dose: 100.0 mg/kg/injection, schedule: Q04DX003 (ip), vehicle: saline with Tween-80 100 % of control | dose: 200.0 mg/kg/injection, schedule: Q01DX009 (ip), vehicle: saline with Tween-80 90 % of control | dose: 200.0 mg/kg/injection, schedule: Q04DX003 (ip), vehicle: saline with Tween-80 91 % of control | dose: 400.0 mg/kg/injection, schedule: Q01DX009 (ip), vehicle: saline with Tween-80 100 % of control | dose: 400.0 mg/kg/injection, schedule: Q04DX003 (ip), vehicle: saline with Tween-80 91 % of control

CC1CC[N-]CC1.CC1CC[N-]CC1.CC1CC[N-]CC1.CC1CC[N-]CC1.CS(C)=O.CS(C)=O.[Cl-].[Cl-].[Cl-].[Cl-].[Pt+4].[Rh+3]
inactive: dose: 0.19 mg/kg/injection, schedule: Q01DX009 (ip), vehicle: saline 98 % of control | dose: 0.38 mg/kg/injection, schedule: Q01DX009 (ip), vehicle: saline 114 % of control | dose: 0.75 mg/kg/injection, schedule: Q01DX009 (ip), vehicle: saline 105 % of control | dose: 1.5 mg/kg/injection, schedule: Q01DX009 (ip), vehicle: saline 108 % of control | dose: 3.0 mg/kg/injection, schedule: Q01DX009 (ip), vehicle: saline 115 % of control

CN1C(=O)/C(=C2\SC(=O)N(CNc3ccc(Br)cc3)C2=O)c2ccccc21
inactive: dose: 60.0 mg/kg/injection, schedule: Q01DX005 (ip), vehicle: Klucel + Tween-80 88 % of control | dose: 240.0 mg/kg/injection, schedule: Q01DX005 (ip), vehicle: Klucel + Tween-80 89 % of control

C=CCc1ccc(OCCN(CC)CC)c(OC)c1
inactive: dose: 12.5 mg/kg/injection, schedule: Q01DX005 (ip), vehicle: saline with Tween-80 117 % of control | dose: 25.0 mg/kg/injection, schedule: Q01DX005 (ip), vehicle: saline with Tween-80 113 % of control | [2] 98 % of control

Nc1ccc(NC(=O)c2cc(Cl)cc(Cl)c2O)c(Cl)c1
inactive: dose: 50.0 mg/kg/injection, schedule: Q01DX009 (ip), vehicle: saline with Tween-80 107 % of control | [1] 114 % of control

CCCSC(SCCC)C1OC(c2ccccc2)OC2COC(c3ccccc3)OC21 (configuration not stated)
inactive: dose: 50.0 mg/kg/injection, schedule: Q01DX005 (ip), vehicle: Klucel + Tween-80 90 % of control | dose: 100.0 mg/kg/injection, schedule: Q01DX005 (ip), vehicle: Klucel + Tween-80 87 % of control | dose: 200.0 mg/kg/injection, schedule: Q01DX005 (ip), vehicle: Klucel + Tween-80 87 % of control

C/C(=N\NS(=O)(=O)c1ccc(C)cc1)c1cccs1
inactive: dose: 50.0 mg/kg/injection, schedule: Q01DX009 (ip), vehicle: Klucel (hydroxypropylcellulose) (HPC) 100 % of control | dose: 100.0 mg/kg/injection, schedule: Q01DX009 (ip), vehicle: Klucel (hydroxypropylcellulose) (HPC) 91 % of control | dose: 200.0 mg/kg/injection, schedule: Q01DX009 (ip), vehicle: Klucel (hydroxypropylcellulose) (HPC) 92 % of control

C=C1C(O)C23CCC4C(C(=O)O)(C(=O)O)CC(OC5OC(CO)C(O)C(OC(=O)CCc6ccccc6)C5NC(=O)CC(C)C)CC4(C)C2CCC1(O)C3 (configuration not stated)
inactive: dose: 0.25 mg/kg/injection, schedule: Q01DX005 (ip), vehicle: Klucel (hydroxypropylcellulose) (HPC) 96 % of control | dose: 0.5 mg/kg/injection, schedule: Q01DX005 (ip), vehicle: Klucel (hydroxypropylcellulose) (HPC) 98 % of control | dose: 1.0 mg/kg/injection, schedule: Q01DX005 (ip), vehicle: Klucel (hydroxypropylcellulose) (HPC) 100 % of control | [3] 101 % of control

O=S1(=O)CS(=O)(=O)OCCO1
active: dose: 6.25 mg/kg/injection, schedule: Q01DX005 (ip), vehicle: Klucel (hydroxypropylcellulose) (HPC) 155 % of control | dose: 9.0 mg/kg/injection, schedule: Q01DX005 (ip), vehicle: Klucel (hydroxypropylcellulose) (HPC) 162 % of control and 165 % of control | dose: 12.5 mg/kg/injection, schedule: Q01DX005 (ip), vehicle: Klucel (hydroxypropylcellulose) (HPC) 216 % of control | dose: 14.0 mg/kg/injection, schedule: Q01DX005 (ip), vehicle: Klucel (hydroxypropylcellulose) (HPC) 191 % of control (2×) and 200 % of control | dose: 25.0 mg/kg/injection, schedule: Q01DX005 (ip), vehicle: Klucel (hydroxypropylcellulose) (HPC) 267 % of control and 270 % of control | dose: 75.0 mg/kg/injection, schedule: Q01DX005 (ip), vehicle: Klucel (hydroxypropylcellulose) (HPC) 207 % of control and 588 % of control
inactive: [3] 124 % of control

CCN(CC)c1ccc2cc(-c3nc4ccccc4s3)c(=O)oc2c1
inactive: dose: 100.0 mg/kg/injection, schedule: Q04DX003 (ip), vehicle: Klucel (hydroxypropylcellulose) (HPC) 92 % of control | dose: 200.0 mg/kg/injection, schedule: Q04DX003 (ip), vehicle: Klucel (hydroxypropylcellulose) (HPC) 92 % of control | dose: 400.0 mg/kg/injection, schedule: Q04DX003 (ip), vehicle: Klucel (hydroxypropylcellulose) (HPC) 104 % of control

CCOc1ccc(Nc2ncnc3sc4c(c23)CCCC4)cc1
inactive: [2] 100 % of control | dose: 100.0 mg/kg/injection, schedule: Q01DX005 (ip), vehicle: saline with Tween-80 102 % of control | dose: 200.0 mg/kg/injection, schedule: Q01DX005 (ip), vehicle: saline with Tween-80 109 % of control

CC1=C(Cl)CC(/C(C)=C/Cl)OC1(O)CBr (configuration not stated)
inactive: dose: 0.1 mg/kg/injection, schedule: Q01DX009 (ip), vehicle: Klucel (hydroxypropylcellulose) (HPC) 100 % of control | dose: 0.2 mg/kg/injection, schedule: Q01DX009 (ip), vehicle: Klucel (hydroxypropylcellulose) (HPC) 100 % of control | dose: 0.38 mg/kg/injection, schedule: Q01DX009 (ip), vehicle: Klucel (hydroxypropylcellulose) (HPC) 95 % of control | dose: 0.4 mg/kg/injection, schedule: Q01DX009 (ip), vehicle: Klucel (hydroxypropylcellulose) (HPC) 97 % of control

CCCCCCCCCCCCCCCCCC[N+](C)(C)C (tested in a mixture with another compound)
inactive: dose: 1.5 mg/kg/injection, schedule: Q01DX009 (ip), vehicle: saline with Tween-80 90 % of control | dose: 3.0 mg/kg/injection, schedule: Q01DX009 (ip), vehicle: saline with Tween-80 113 % of control | dose: 6.25 mg/kg/injection, schedule: Q01DX009 (ip), vehicle: saline 109 % of control | dose: 12.5 mg/kg/injection, schedule: Q01DX009 (ip), vehicle: saline 113 % of control

CCc1nc(N)nc(N)c1-c1ccc(N2CCCCC2)c([N+](=O)[O-])c1
inactive: dose: 3.13 mg/kg/injection, schedule: Q01DX009 (ip), vehicle: distilled water + Tween-80 104 % of control | dose: 6.25 mg/kg/injection, schedule: Q01DX009 (ip), vehicle: distilled water + Tween-80 99 % of control | dose: 12.5 mg/kg/injection, schedule: Q01DX009 (ip), vehicle: distilled water + Tween-80 95 % of control | dose: 25.0 mg/kg/injection, schedule: Q01DX009 (ip), vehicle: distilled water + Tween-80 95 % of control | dose: 50.0 mg/kg/injection, schedule: Q01DX009 (ip), vehicle: distilled water + Tween-80 99 % of control and 90 % of control and 92 % of control | dose: 100.0 mg/kg/injection, schedule: Q01DX009 (ip), vehicle: distilled water + Tween-80 107 % of control and 86 % of control | dose: 200.0 mg/kg/injection, schedule: Q01DX009 (ip), vehicle: distilled water + Tween-80 90 % of control

FC(F)(Cl)c1nc2nc(Cl)c(Cl)nc2[nH]1
inactive: dose: 50.0 mg/kg/injection, schedule: Q01DX009 (ip), vehicle: other 100 % of control | dose: 50.0 mg/kg/injection, schedule: Q04DX003 (ip), vehicle: other 95 % of control | dose: 100.0 mg/kg/injection, schedule: Q01DX009 (ip), vehicle: other 114 % of control | dose: 100.0 mg/kg/injection, schedule: Q04DX003 (ip), vehicle: other 110 % of control | dose: 200.0 mg/kg/injection, schedule: Q04DX003 (ip), vehicle: other 105 % of control

O=C1CSC(c2ccccc2Cl)N1c1n[nH]c(=S)s1 (configuration not stated)
inactive: dose: 100.0 mg/kg/injection, schedule: Q04DX002 (ip), vehicle: Klucel (hydroxypropylcellulose) (HPC) 98 % of control | dose: 200.0 mg/kg/injection, schedule: Q04DX002 (ip), vehicle: Klucel (hydroxypropylcellulose) (HPC) 100 % of control | dose: 400.0 mg/kg/injection, schedule: Q04DX002 (ip), vehicle: Klucel (hydroxypropylcellulose) (HPC) 97 % of control

[Mn]=[Se]
inactive: dose: 7.5 mg/kg/injection, schedule: Q01DX005 (ip), vehicle: other 101 % of control | dose: 15.0 mg/kg/injection, schedule: Q01DX005 (ip), vehicle: other 100 % of control and 103 % of control | dose: 30.0 mg/kg/injection, schedule: Q01DX005 (ip), vehicle: other 103 % of control and 94 % of control | dose: 60.0 mg/kg/injection, schedule: Q01DX005 (ip), vehicle: acid diluted with saline 110 % of control | dose: 60.0 mg/kg/injection, schedule: Q01DX005 (ip), vehicle: other 100 % of control
